Source: article PMC6268972, “Antiproliferative, Antimicrobial and Apoptosis Inducing Effects of Compounds Isolated from Inula viscosa” (Molecules, 2012)
Values after ≈ are worked out from the molar mass of the structure shown. Like-named read-outs stand apart in the source and are kept apart here.

Assays:
MCF-7 cells = experiment: MTT antiproliferative activity assay, MCF-7; format: cell-based, human; settings: for IC50: Homo sapiens, read-out: IC50 MCF-7
Protocol: (§1) Hep-2 (larynx carcinoma, ATCC: CCL-23), MCF-7 (breast epithelial adenocarcinoma, ATCC: HTB-22), and Vero (African green monkey kidney, ATCC: CCL-81) cell lines were kindly provided by Dr. Mona Hassuneh (Department of Biological Sciences, University of Jordan). Cells were grown in Minimum Essential Medium Eagle (Gibco, Paisley UK) supplemented with 10% heat inactivated fetal bovine serum (Gibco, Paisley UK), 29 μg/mL L-glutamine, and 40 μg/mL gentamicin. Cells were incubated in a humidified atmosphere of 5% CO2 at 37 °C.
(§2) The antiproliferative activity of Inula viscosa compounds was measured using the MTT (3-(4,5-dimethylthiazol-2-yl)-2,5-diphenyltetrazolium bromide) assay (Promega, Madison, WI, USA). The assay detects the reduction of MTT by mitochondrial dehydrogenase to blue formazan product, which reflects the normal function of mitochondria and cell viability. Exponentially growing cells were washed and seeded at 17,000 cells/well for Hep-2 cell line and 11,000 cells/ well for MCF-7 cell line (in 200 μL of growth medium) in 96 well microplates (Nunc, Roskilde, Denmark). After 24 h incubation, a partial monolayer was formed then the media was removed and 200 μL of the medium containing the compound (initially dissolved in DMSO) were added and re-incubated for 48 h. Then 100 μL of the medium were aspirated and 15 μL of the MTT solution were added to the remaining medium (100 μL) in each well. After 4 h contact with the MTT solution, blue crystals were formed. One hundred μL of the stop solution were added and incubated further for 1 h.
(§3) Reduced MTT was assayed at 550 nm using a microplate reader (Biotek, Winooski, VT, USA). Control groups received the same amount of DMSO (0.1%).Untreated cells were used as a negative control while, cells treated with vincristine sulfate were used as a positive control. Eight concentrations (150, 100, 50, 20, 10, 5, 2, and 1 μg/mL) were prepared from each compound and tested against the three cell lines. IC50 values were calculated as the concentrations that show 50% inhibition of proliferation on any tested cell line. Stock solutions of the compounds were dissolved in (DMSO) then diluted with the medium and sterilized using 0.2 μm membrane filters. The toxicity of DMSO was determined and the final dilution of compounds used for treating the cells contained not more than 0.1% (non toxic concentration) DMSO. IC50 values were reported as the average of three replicates. The antiproliferative effect of the tested compounds was determined by comparing the optical density of the treated cells against the optical density of the control (cells treated with media containing 0.1% DMSO).

Hep-2 cells = experiment: MTT antiproliferative activity assay, Hep-2; format: cell-based; settings: for IC50: Homo sapiens, read-out: IC50 Hep-2
Protocol: as §1, §2, §3

Vero cells = experiment: MTT antiproliferative activity assay, Vero; format: cell-based, African green monkey; settings: for IC50: Chlorocebus sabaeus, Vero, read-out: IC50 Vero
Protocol: as §1, §2, §3

[1] = test system: Methicillin resistant Staphylococcus aureus (MRSA); experiment: Microtiter plate dilution MIC, MRSA; format: cell-based; settings: 24 h; for MIC: Staphylococcus aureus, MRSA, read-out: Minimum inhibitory concentration (MIC) MRSA
Protocol: (§4) The microbial strains used in this study were Escherichia coli (ATCC 10798), Salmonella typhimurium (ATCC14028), Methicillin resistant Staphylococcus aureus (MRSA, Clinical isolate), Bacillus cereus (Toxigenic strain TS), and Candida albicans (ATCC 90028). Bacterial strains were stocked onto nutrient agar slant at 4 °C, and Candida albicans was stocked onto malt agar slant at 4 °C.
(§5) The microtiter plate dilution method was used to determine the MIC (minimum inhibitory concentration) of compounds under study. Sterile 96-well microplates (Nunc) were used for the assay. Stock compounds were dissolved in DMSO so that the final concentrations in micro wells were less than 1% DMSO and solvent controls were run at these concentrations. Positive controls of penicillin G and tetracycline (Oxoid, Hampshire, UK) were prepared at the following concentrations 2, 4, 8, 16, 31, 62.5, 125, and 250 μg/mL. 1% DMSO was used as a solvent control. Compounds were diluted to twice the desired initial test concentration (250 µg/mL) with Muller Hinton broth (MHB) (Oxoid). All wells, except the first were filled with MHB (50 μL). Compounds (100 μL) were added to the first well and serial two-fold dilutions were made down to the desired minimum concentration (2 μg/mL). An over-night culture of bacteria suspended in MHB was adjusted to turbidity equal to 0.5 McFarland standard. The plates were inoculated with bacterial suspension (50 μL/well) and incubated at 37 °C for 24 h. Then the turbidity was measured using micro-plate reader (Biotek) at 620 nm wavelength. The same procedure was used to determine the antifungal activity of compounds against Candida albicans. The medium used was malt extract broth. The yeast cells were suspended in 0.85% saline, with an optical density equivalent to 0.5 McFarland standard, and diluted 1:100 in malt extract broth to obtain the working concentration. After 24 h incubation with each compound, the turbidity was measured at 530 nm wavelength using a spectrophotometer (Biotek). Percentage inhibition for tested microorganisms was calculated using the following formula:
(§6) MIC was determined as the lowest concentration of the compound that causes complete inhibition (100%) of each microorganism.

Escherichia coli = experiment: Microtiter plate dilution MIC, E. coli; format: cell-based; settings: for MIC: Escherichia coli, read-out: Minimum inhibitory concentration (MIC) E.c
Protocol: as §4, §5, §6

Salmonella typhimurium = experiment: Microtiter plate dilution MIC, S. typhimurium; format: cell-based; settings: for MIC: Salmonella enterica, ATCC 14028 / TYPHIMURIUM, read-out: Minimum inhibitory concentration (MIC) S.t
Protocol: as §4, §5, §6

Bacillus cereus = experiment: Microtiter plate dilution MIC, B. cereus; format: cell-based; settings: 24 h; for MIC: Bacillus cereus, read-out: Minimum inhibitory concentration (MIC) B.c
Protocol: as §4, §5, §6

Candida albicans = experiment: Microtiter plate dilution MIC, C. albicans; format: cell-based; settings: for MIC: Candida albicans, read-out: Minimum inhibitory concentration (MIC) C.a
Protocol: as §4, §5, §6

[2] = MTT, 48 h treatment, average of three replicates
[3] = clinical isolate, 100% inhibition
[4] = ATCC 10798, 24 h, 100% inhibition
[5] = ATCC14028, 24 h, 100% inhibition
[6] = Toxigenic strain TS, 100% inhibition
[7] = ATCC 90028, malt extract broth, 24 h, 100% inhibition
[8] = MCF7, MTT, 48 h treatment, average of three replicates
[9] = HEp-2, MTT, 48 h treatment, average of three replicates
[10] = ATCC10798, ATCC 10798, 24 h, 100% inhibition
[11] = ATCC90028, ATCC 90028, malt extract broth, 24 h, 100% inhibition

Molecule	IC50 MCF-7 (MCF-7 cells; [2]) [µg/mL]	IC50 Hep-2 (Hep-2 cells; [2]) [µg/mL]	IC50 Vero (Vero cells; [2]) [µg/mL]	Minimum inhibitory concentration (MIC) MRSA [1, 3] [µg/mL]	Minimum inhibitory concentration (MIC) E.c (Escherichia coli; [4]) [µg/mL]	Minimum inhibitory concentration (MIC) S.t (Salmonella typhimurium; [5]) [µg/mL]	Minimum inhibitory concentration (MIC) B.c (Bacillus cereus; [6]) [µg/mL]	Minimum inhibitory concentration (MIC) C.a (Candida albicans; [7]) [µg/mL]	other results
2-Desacetoxyxanthinin	>150	>150	>150	>250	>250	>250	>250	>250	
C=C(C(=O)O)[C@@H]1CC[C@@]2(C)C[C@@H](O)C[C@@](C)(O)[C@@H]2C1 [2α-Hydroxyilicic acid]	>150	>150	>150	>250	>250	>250	>250	>250	
COc1cc(O)c2c(c1)O[C@H](c1ccc(O)c(O)c1)[C@@H](OC(C)=O)C2=O [3-O-Acetylpadmatin]	>150	>150	>150	>250	>250	>250	>250	>250	
C=C1C[C@@H]2OC(=O)[C@@H](C)[C@H]2C[C@@H]2[C@@H]1CC[C@@]2(C)O [11α,13-Dihydroinuviscolide]	>150	>150	>150	>250	>250	>250	>250	>250	
COc1c(O)cc2oc(-c3ccc(O)cc3)cc(=O)c2c1O [Hispidulin]									IC50 (MCF-7 cells; MCF7, 48 h): 10.3 ± 1.85 µg/mL (≈ 34.5 µM); IC50 (Hep-2 cells; HEp-2, 48 h): 19.5 ± 1.06 µg/mL (≈ 64.9 µM); IC50 (Vero cells; 48 h): 105 ± 2.35 µg/mL (≈ 351 µM); MIC [1]: > 250 µg/mL; MIC (Escherichia coli; ATCC10798, 24 h): > 250 µg/mL; MIC (Salmonella typhimurium; 24 h): > 250 µg/mL; MIC (Bacillus cereus): > 250 µg/mL; MIC (Candida albicans; ATCC90028, 24 h): > 250 µg/mL
C=C(C(=O)O)[C@@H]1CC[C@@]2(C)CCC[C@@](C)(O)[C@@H]2C1 [Ilicic acid]									IC50 (MCF-7 cells; [8]): > 150 µg/mL; IC50 (Hep-2 cells; [9]): > 150 µg/mL; IC50 (Vero cells; [2]): > 150 µg/mL; MIC [1, 3]: > 250 µg/mL; MIC (Escherichia coli; [10]): > 250 µg/mL; MIC (Salmonella typhimurium; [5]): > 250 µg/mL; MIC (Bacillus cereus; [6]): > 250 µg/mL; MIC (Candida albicans; [11]): > 250 µg/mL
C=C1C(=O)O[C@H]2CC(=C)[C@H]3CC[C@@](C)(O)[C@@H]3C[C@H]12 [Inuviscolide]									IC50 (MCF-7 cells; [8]): > 150 µg/mL; IC50 (Hep-2 cells; [9]): 148.8 ± 1.25 µg/mL (≈ 599 µM); IC50 (Vero cells; [2]): > 150 µg/mL; MIC [1, 3]: > 250 µg/mL; MIC (Escherichia coli; [10]): > 250 µg/mL; MIC (Salmonella typhimurium; [5]): > 250 µg/mL; MIC (Bacillus cereus; [6]): > 250 µg/mL; MIC (Candida albicans; [11]): > 250 µg/mL
COc1c(O)cc2oc(-c3ccc(O)c(O)c3)cc(=O)c2c1O [Nepetin]	5.87 ± 1.36 (≈ 18.6 µM)	11.33 ± 0.98 (≈ 35.8 µM)	103.54 ± 2.82 (≈ 327 µM)	250 (≈ 790 µM)	>250	>250	>250	>250	
C[C@@H]1[C@H](O)[C@@H](C)/C=C/C=C/CC/C=C/C=C/C=C/C=C/C(O[C@H]2O[C@H](C)[C@@H](O)[C@H](N)[C@@H]2O)CC2O[C@](O)(CC(O)C(O)CCC(O)CC(O)CC(O)CC(=O)O[C@H]1C)CC(O)C2C(=O)O (stereo partly shown) [Nystatin, reference compound]								25 (≈ 27 µM)	
CC1(C)S[C@@H]2[C@H](NC(=O)Cc3ccccc3)C(=O)N2[C@H]1C(=O)O [Penicillin G, reference compound]									MIC [1, 3]: > 250 µg/mL; MIC (Escherichia coli; [10]): 125 µg/mL (≈ 374 µM); MIC (Salmonella typhimurium; [5]): 125 µg/mL (≈ 374 µM); MIC (Bacillus cereus; [6]): > 250 µg/mL
CN(C)[C@@H]1C(O)=C(C(N)=O)C(=O)[C@@]2(O)C(O)=C3C(=O)c4c(O)cccc4[C@@](C)(O)[C@H]3C[C@@H]12 [Tetracycline, reference compound]									MIC [1, 3]: 125 µg/mL (≈ 281 µM); MIC (Escherichia coli; [10]): 150 µg/mL (≈ 338 µM); MIC (Salmonella typhimurium; [5]): 4 µg/mL (≈ 9 µM); MIC (Bacillus cereus; [6]): 2 µg/mL (≈ 4.5 µM)
C=C(C(=O)O)[C@@H]1CC[C@@]2(C)CC[C@@H](O)C(=C)C2C1 (stereo partly shown) [Viscic acid]	>150	>150	>150	>250	>250	>250	>250	>250	
CC[C@H](CC[C@@H](C)[C@H]1CC[C@H]2[C@@H]3CC=C4C[C@@H](O[C@@H]5O[C@H](CO)[C@@H](O)[C@H](O)[C@H]5O)CC[C@]4(C)[C@H]3CC[C@]12C)C(C)C [β-Sitosteryl glucoside]	>150	>150	>150	>250	>250	>250	>250	>250	
Xepetin	>150	>150	>150	>250	>250	>250	>250	>250	
